Measured values reported in patent EP4656642A1, “ESTROGEN RECEPTOR PROTEOLYSIS TARGETING CHIMERA COMPOUND AND USE THEREOF” (GAN & LEE PHARM CO., LTD, priority 2023, dated 2024).

Tests used:
Format in all cases: cell-based
T-47D cells = assay: Inhibition of cell proliferation in T-47D cells (CCK-8, 6 days); conditions: 6 days of treatment
Procedure, shortened: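 Viability read-out was CCK-8 after 6 days of compound treatment (37 °C, 5% CO2) across graded concentrations. Cells were T-47D seeded at 3,000 per well in 1640 medium plus 10% FBS. IC50 was calculated against proliferation.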

ERα [1] = target: T1, ERα (Homo sapiens, UniProt P03372); assay: Degradation of ERα in MCF-7 cells (immunoblotting, 4 h)
T1 sequence (P03372 1-595): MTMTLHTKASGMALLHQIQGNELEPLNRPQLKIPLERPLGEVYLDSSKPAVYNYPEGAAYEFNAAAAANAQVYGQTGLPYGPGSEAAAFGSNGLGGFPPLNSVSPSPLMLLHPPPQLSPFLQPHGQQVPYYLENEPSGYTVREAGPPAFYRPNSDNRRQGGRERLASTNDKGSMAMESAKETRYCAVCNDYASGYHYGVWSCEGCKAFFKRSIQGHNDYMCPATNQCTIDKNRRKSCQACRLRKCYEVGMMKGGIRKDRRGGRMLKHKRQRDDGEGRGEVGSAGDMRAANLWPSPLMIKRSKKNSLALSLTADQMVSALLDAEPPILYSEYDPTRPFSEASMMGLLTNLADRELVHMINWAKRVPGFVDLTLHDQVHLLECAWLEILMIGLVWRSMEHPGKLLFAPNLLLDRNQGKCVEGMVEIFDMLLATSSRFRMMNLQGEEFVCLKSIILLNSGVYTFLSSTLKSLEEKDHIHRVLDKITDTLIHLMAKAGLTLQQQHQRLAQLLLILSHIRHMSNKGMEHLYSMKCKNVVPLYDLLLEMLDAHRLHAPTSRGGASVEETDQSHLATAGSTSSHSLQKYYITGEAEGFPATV
Procedure, shortened: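 Degradation rate reflects ERα band intensity, corrected to an internal reference protein, relative to control. Values come from Western blotting of lysates from MCF-7 cells exposed 4 h at 37°C to compounds at final concentrations of 0.15-1000nM.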

ERα [2] = target: T1, ERα; assay: Degradation of ERα in T-47D cells (immunoblotting, 4 h); set-up: host or cells: T-47D
Procedure, shortened: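 ERα protein levels were assessed by immunoblot of RIPA lysates (with protease inhibitor) after 4 h exposure at 37°C. Compound was added in DMSO to T-47D cells at final concentrations of 0.15-1000 nM.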

MCF-7 cells = assay: Inhibition of cell proliferation of MCF-7 cells (CCK-8, 9 days)
Procedure, shortened: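 Read-out was CCK-8 viability after 9-day continuous exposure (37°C, 5% CO2) of MCF-7 cells plated at 800/well in 10% FBS DMEM across several compound concentrations. Values are proliferation IC50s.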

[3] = treated for 9 days, CCK-8 kit (Table 6)

Compound | IC50 (T-47D cells; Table 3) [nM] | Degradation rate (%) of ERα in MCF-7 cells (ERα [1]; 1nM compound) [%] | Degradation rate (%) of ERα in MCF-7 cells (ERα [1]; 10nM compound) [%] | Degradation rate (%) of ERα in T-47D cells (ERα [2]; 1nM compound) [%] | Degradation rate (%) of ERα in T-47D cells (ERα [2]; 10nM compound) [%] | IC50 (MCF-7 cells; [3]) [nM] | IC50 (T-47D cells; Table 2) [nM] | IC50 (MCF-7 cells; 9 days of treatment, CCK-8, Table 5) [nM]
C[C@@H]1Cc2c([nH]c3ccccc23)[C@@H](c2c(F)cc(N3CCC4(CCC(N5CCC6(CC5)COc5c6ccc6c5CN(C5CCC(=O)NC5=O)C6=O)CC4)CC3)cc2F)N1CC(F)F (stereo partly shown) [A103] | 2.99 | 37 | 70 | 29 | 68 | 13.6 |  | 
C[C@@H]1Cc2c(ccc3[nH]ncc23)C(c2ccc(N3CCC(C(=O)N4CCC(N5CCC6(CC5)COc5c6ccc6c5CN(C5CCC(=O)NC5=O)C6=O)CC4)CC3)cn2)N1CC(F)(F)F (stereo partly shown) [B42] | 2460 | 17 | 26 | 3 | 13 | 90900 |  | 
O=C1CCC(N2Cc3cc4c(cc3C2=O)OCC42CCN(C3CCC4(CC3)CN(c3ccc([C@@H]5c6ccc(O)cc6CC[C@@H]5c5ccccc5)cc3)C4)CC2)C(=O)N1 (stereo partly shown) [K17] | 1.54 | 14 | 35 | 23 | 66 | 70 |  | 
O=C1CCC(N2C(=O)c3ccc4c(c3C2=O)OCC42CCN(C3CCN(C(=O)C4CCN(c5ccc([C@@H]6c7ccc(O)cc7CC[C@@H]6c6ccccc6)cc5)CC4)CC3)CC2)C(=O)N1 (stereo partly shown) [H27] | 4.65 | 11 | 46 | 36 | 78 | 800 |  | 
O=C1CCC(N2Cc3ccc4c(c3C2=O)OCC42CCN(C3CCN(C(=O)C4(F)CCN(c5ccc([C@@H]6c7ccc(O)cc7CC[C@@H]6c6ccccc6)cc5)CC4)CC3F)CC2)C(=O)N1 (stereo partly shown) [A93] | 1.85 | 31 | 69 | 26 | 71 | 10.5 |  | 
O=C1CCC(N2Cc3c(ccc4c3OCC43CCN(C4CCN(C(=O)c5ccc([C@@H]6c7ccc(O)cc7CC[C@@H]6c6ccccc6)cc5)CC4)CC3)C2=O)C(=O)N1 (stereo partly shown) [H9] | 594 | -39 | -54 | -3 | -31 | 5020 |  | 
C[C@H]1CN(c2ccc([C@@H]3c4ccc(O)cc4CC[C@@H]3c3ccccc3)cc2)CCN1C[C@H]1CC[C@H](C(=O)N2CCC3(CC2)COc2c3ccc3c2CN(C2CCC(=O)NC2=O)C3=O)CC1 (stereo partly shown) [B36] | 1.03 | 55 | 55 | 54 | 68 | 21700 |  | 
O=C1CCC(N2Cc3c(ccc4c3OCC43CCN(CC4CCN(C(=O)C5CCN(c6ccc([C@@H]7c8ccc(O)cc8CC[C@@H]7c7ccccc7)cc6)CC5)CC4)CC3)C2=O)C(=O)N1 (stereo partly shown) [A100] | 0.84 | 65 | 73 | 77 | 84 | 2.27 |  | 
O=C1CCC(N2Cc3cc4c(cc3C2=O)OC2(CC4)CCN(C3CCC4(CC3)CN(c3ccc(C5c6ccc(O)cc6CCC5c5ccccc5)cc3)C4)CC2)C(=O)N1 (stereo not shown) [A23] |  |  | 14 |  | 53 |  | 9 | 10
O=C1CCC(N2Cc3cc4c(cc3C2=O)CCC2(CN(C(=O)C3CCN(c5ccc([C@@H]6c7ccc(O)cc7CC[C@@H]6c6ccccc6)cc5)CC3)C2)O4)C(=O)N1 (stereo partly shown) [A50] | 4.16 | 11 | 27 | 24 | 53 | 4080 |  | 
O=C1CCC(N2Cc3c(ccc4c3OCC43CCN(C[C@H]4CC[C@H](C#Cc5ccc([C@@H]6c7ccc(O)cc7CC[C@@H]6c6ccccc6)cc5)CC4)CC3)C2=O)C(=O)N1 (stereo partly shown) [A115] | 10.9 | 0 | 16 | 17 | 43 | 60.6 |  | 
O=C1CCC(N2Cc3c(ccc4c3OCC43CCN(C4CCN(C5CC6(CCN(c7ccc([C@@H]8c9ccc(O)cc9CC[C@@H]8c8ccccc8)cc7)CC6)C5)[C@@H](C(=O)NC5CC5)C4)CC3)C2=O)C(=O)N1 (stereo partly shown) [K27] | 1.05 | 71 | 86 | 69 | 88 | 33.1 |  | 
O=C1CCC(N2Cc3c(ccc4c3OCC43CCN(C(=O)C4CCC(N5CCC(C#Cc6ccc([C@@H]7c8ccc(O)cc8CC[C@@H]7c7ccccc7)cc6)CC5)CC4)CC3)C2=O)C(=O)N1 (stereo partly shown) [A101] | 0.91 | 52 | 61 | 44 | 45 | 850 |  | 
O=C1CCC(N2Cc3c(ccc4c3OCC43CCN(C4CC5(CCN(c6ccc([C@@H]7c8ccc(O)cc8CC[C@@H]7c7ccccc7)cc6)CC5)C4)CC3)C2=O)C(=O)N1 (stereo partly shown) [L16] | 7.09 | 29 | 51 | 29 | 64 | 39 |  | 
CC(C)(C(=O)N1CCC2(CC1)COc1c2ccc2c1CN(C1CCC(=O)NC1=O)C2=O)N1CCC2(CCN(c3ccc([C@@H]4c5ccc(O)cc5CC[C@@H]4c4ccccc4)cc3)CC2)C1 (stereo partly shown) [A91] | 1.11 | 2 | 33 | -1 | 49 | 325 |  | 
O=C1CCC(N2Cc3c(ccc4c3OCC43CCN(C(=O)CN(CC4CC4)CC4CCN(c5ccc([C@@H]6c7ccc(O)cc7CC[C@@H]6c6ccccc6)cc5)CC4)CC3)C2=O)C(=O)N1 (stereo partly shown) [J16] | 1.58 | 17 | 47 | 35 | 68 | 2250 |  | 
O=C1CCC(N2C(=O)c3cc4c(cc3C2=O)OC2(CC4)CCN(CC3CCC4(CC3)CCN(c3ccc([C@@H]5c6ccc(O)cc6CC[C@@H]5c5ccccc5)cc3)CC4)CC2)C(=O)N1 (stereo partly shown) [A43] | 41 | -2 | -8 | 7 | 26 | 62 |  | 
